Experiments:
[1] = system: ACAT (liver microsome fractions of male rabbits); experiment: ACAT inhibitory activity: formation of labelled cholesteryl esters from [1-14C]oleoyl-CoA and endogenous cholesterol; type: biochemical, rabbit; conditions: compound added at 10^-7 M
Procedure: The enzyme preparation, ACAT was prepared from liver microsme fractions of male rabbits according to the method of E. E. Largis et al. (Journal of Lipid Research, Vol. 30, pages 681-690, 1989). The activity was calculated by assaying the amount of the labelled cholesteryl esters formed from [1-^14 C]oleoyl-CoA and endogenous cholesterol according to the method of Kazuichi NATORI et al. (Japan J. Pharmacol., Vol. 42, pages 517-523, 1986).
The result is shown in Table 1, in which percent inhibition of the formation of the labelled cholesteryl esters with a compound added at 10^-7 M is indicated as index for the ACAT inhibitory activity.

Human LDL = experiment: Antioxidative activity: inhibition of MDA formation from LDL incubated with cupric sulfate; type: biochemical; conditions: compound 10^-5 M; cupric sulfate 5×10^-6 M; 5 hrs; compared with control
Procedure: Human LDL was incubated in the presence of cupric sulfate (5×10^-6 M) and in the presence or absence of a compound (10^-5 M) for 5 hrs. After the incubation, the peroxidation of low-density lipoproteins (LDL) is evaluated by the formation of malondialdehyde (MDA), which is a sort of lipid peroxides according to the method of Simon J. T. Mao et al. (J. Med. Chem., Vol. 34, pages 298-302, 1991). Activity of the compound is shown by percent inhibition of the MDA formation as compared with control.

[2] = Cholesterol-lowering activity in hypercholesteremic rats; type: in vivo, Sprague-Dawley male rats; conditions: 30 mg/kg oral, in 0.5% methylcellulose; plasma cholesterol prior to and 5 hrs after administration
Procedure: Sprague-Dawley male rats were given a powdery feed containing 1% cholesterol and 0.5% cholic acid in an amount of 15 g per day per animal for 3 days to produce hypercholesteremic rats. Four days later, a compound suspended in 0.5% methylcellulose was administered orally at a dose of 30 mg/kg. Blood was drawn prior to and 5 hrs after the administration of the compound, for which the plasma cholesterol level was measured using a commercially available assay kit (Cholesterol E Test Wako, Wako Junyaku K.K.).

Row | SMILES | ACAT Inhibition [1] [%] | Antioxidant Activity (percent inhibition of the MDA formation) (Human LDL) [%] | Percent Reduction of Cholesterol [2] [%]
1 | CC(C)(C)c1cc(CCc2ccccc2NC(=O)NC2CCN(Cc3ccc(F)cc3)CC2)cc(C(C)(C)C)c1O [Example 83, N-[2-(3,5-di-tert-butyl-4-hydroxyphenethyl)phenyl]-N'-[1-(4-fluorobenzyl)-4-piperidyl]urea] | 96 | 96 | 44.6
2 | CN(C(=O)Nc1ccccc1CCc1cc(C(C)(C)C)c(O)c(C(C)(C)C)c1)C1CCN(Cc2ccccc2)CC1 [Example 92, N-[2-(3,5-di-tert-butyl-4-hydroxyphenethyl)phenyl]-N'-(1-benzyl-4-piperidyl)-N'-methylurea] | 99 | 96 | 79.9
3 | CC(C)(C)c1cc(CCc2cc(F)cc(F)c2NC(=O)NC2CCN(Cc3ccccc3)CC2)cc(C(C)(C)C)c1O [Example 108, N-[2-(3,5-di-tert-butyl-4-hydroxyphenethyl)-4,6-difluorophenyl]-N'-(1-benzyl-4-piperidyl)urea] | 97 | 93 | 71.8
4 | CC(C)(C)c1cc(CCc2ccccc2NC(=O)N2CCCC3CCCCC32)cc(C(C)(C)C)c1O (stereo not drawn) [Example 130, 1-[N-[2-(3,5-di-tert-butyl-4-hydroxyphenethyl)phenyl]carbamoyl]decahydroquinoline] | 99 | 95 | 71.5
